Five molecules from patent EP2608671B1, “COMPOUNDS FOR TREATMENT OF CANCER” (Gtx, Inc., priority 2010, dated 2012) can be followed below.

By clearance is commonly meant the volume of plasma or blood freed of the substance per unit of time. Lower therefore signals inefficient removal. As usually defined, the Solubility is how much of the substance goes into solution per volume. The low end stands for a poorly soluble substance, the high end for a readily soluble substance. The term AUC denotes the area under the concentration-time curve, a measure of exposure. Low values mean low exposure, high ones high exposure. In general, Cmax refers to the highest concentration seen after dosing.

SMILES strings stand for the structures. Converted amounts (≈) assume the structure as drawn. Read-outs that look alike come from different tables or passages of the source. Some results are limits rather than exact numbers.

For one data set, the system named is B16-F1. Kind of data set: SRB cell growth inhibition (cytotoxicity) assay. The class given is cell-based, mouse. Conditions: Mus musculus, B16-F1, SRB assay; Tables 1, 2, 3, 5B, 5C; read-out: IC50 ± SEM (nM), B16-F1. The source says:
(§1) The only compounds which belong to the invention are the ones falling under the scope of formula (XI).

In the next data set the test system is A375. The data set is described as follows: SRB cell growth inhibition (cytotoxicity) assay. Conditions: Homo sapiens. The class given is cell-based, human.
The next data set has as its system WM-164. The data set is described as follows: SRB cell growth inhibition (cytotoxicity) assay. The class given is cell-based, human. Conditions: Homo sapiens.
In the next data set the test system is PC-3. The data set is described as follows: cells.
Description: as §1
Cells were stained with SRB solution.
Cells. […] Cells between the third and fifth passages were used for experiments.
Cell growth inhibition studies. […] Cells were stained with sulphorhodamine B (SRB) solution.

A further data set deals with OVCAR-8. Kind of data set: SRB growth inhibition, MDR model parent line. It counts as cell-based, human. Conditions: Homo sapiens.
Another data set concerns Bovine brain tubulin. The data set is described as follows: In vitro tubulin polymerization assay. The class given is biochemical. Conditions: 10 µM.
Description: (§2) In Vitro Tubulin Polymerization Assay.
as §2
In vitro microtubule polymerization assay.

Data set [1] concerns tubulin (colchicine, vinblastine and paclitaxel binding sites). The data set is described as follows: MS competitive binding assay. The source says:
MS competition binding assay. […] Each reaction was run in triplicate.

For data set [2], the system named is A375 human melanoma xenograft. The data set is described as follows: In vivo antitumor efficacy, A375 melanoma xenograft. On the set-up: species or system mouse. Conditions: 2k 15 mg/kg i.p. How it is done: DTIC at 60 mg/kg was used as a positive control again.
(§3) PC-3 and A375 tumor xenograft studies.
(§4) In vivo antitumor activity [tumor growth inhibition (% T/C), tumor growth delay (T-C value), and tumor cell kill (total log cell kill)].

Data set [3] concerns PC-3 prostate tumor xenograft. Kind of data set: In vivo antitumor efficacy, PC-3 xenograft. Conditions: control 680 mm^3. More on the design: species or system mouse.
Description: as §3, §4

A further data set deals with PC-3 cells. Kind of data set: In vivo drug resistance study (cells dissociated from PC-3 xenografts). The conditions noted are these: Homo sapiens. It counts as cell-based.
The test system of another data set is DU 145. Kind of data set: cells. Conditions: Homo sapiens, DU-145, 96 h.
In another data set the test system is LNCaP. The data set is described as follows: cells. The conditions noted are these: Homo sapiens, 96 h, read-out: IC50 ± SEM (nM), LNCaP.
Another data set has as its system PPC-1. The data set is described as follows: cells. Conditions: Homo sapiens, PPC-1, 96 h, read-out: IC50 ± SEM (nM), PPC-1.
A short description of data set [4]: in vivo. Conditions: mouse, ip.
Data set [5] in a line: Rotarod test (in vivo neurotoxicity). The conditions noted are these: mouse. (In general: Falling from the rotarod earlier than controls is read as motor impairment.)
The conditions of data set [6]: aqueous solubility; 90 min.
The nature of data set [7]: in vivo. The conditions noted are these: rat, plasma, po, 10 mg/kg.
The nature of data set [8]: in vivo. The conditions noted are these: mouse, po, 20 mg/kg.
The next data set deals with NCI/ADR-RES. The data set is described as follows: SRB growth inhibition, P-gp over-expressing MDR line. The class given is cell-based, human. Conditions: Homo sapiens, NCI/ADR-RES; MDR1 overexpressed, n=3; read-out: IC50 ± SEM (nmol/L) NCI/ADR-RES.
The next data set concerns MDA-MB-435. The data set is described as follows: SRB growth inhibition, sensitive parent melanoma line. The class given is cell-based. The conditions noted are these: Homo sapiens, MDA-MB-435; parental cell line, n=3; read-out: IC50 ± SEM (nmol/L) MDA-MB-435.
For a further data set, the system named is MDA-MB-435/LCC6MDR1. Kind of data set: SRB growth inhibition, multidrug-resistant melanoma line. The class given is cell-based. Conditions: MDA-MB-435/LCC6 MDR1; MDR1 overexpressed, n=3; read-out: IC50 ± SEM (nmol/L) MDA-MB-435/LCC6MDR1.
Another data set has as its system MRP. Kind of data set: Growth inhibition in MRP-mediated resistant cells (Table 14B). It counts as cell-based. Conditions: n=3.
The subject of data set [9] is cancer and MDR cell lines with different resistance mechanisms. Kind of data set: Growth inhibition in other cancer and MDR cell lines of Table 14B. It counts as cell-based. The conditions noted are these: n=3.
The next data set concerns WM-164 melanoma cells. The data set is described as follows: Microtubule imaging (immunofluorescence). The conditions noted are these: 18 h treatment. The class given is cell-based, human. The source says: Primary antibody for tubulin and fluorescence-labeled secondary antibody were subsequently added to the cells. Cell nuclei were stained by DAPI. Whole Cell Stain Green was also applied to all cells. All images were acquired with an Olympus IX71 inverted fluorescence microscope (Olympus Corp., Tokyo, Japan) with overlays from separate images of tubulin (red), nuclei (blue), and whole cells (green).

The test system of data set [10] is HUVECs (Human Umbilical Vein Endothelial Cells). It counts as cell-based.
The test system of another data set is T47D. The class given is cell-based, human.
For another data set, the system named is HUVEC monolayers. The data set is described as follows: Endothelial monolayer permeability assay. The class given is cell-based, human. Conditions: leakage of dextran after 1, 2, 4 h.
The test system of the next data set is CaCO-2. Conditions: human.
[11] abbreviates: Homo sapiens, PC-3, 96 h, read-out: IC50 ± SEM (nM), PC-3.
Where [12] appears, read: rat, IV, […] (1h, 2r), 5 mg/kg (5Ha, 5Hc).

For the molecule `COc1cc(C(=O)c2csc(-c3ccccc3)n2)cc(OC)c1OC` [1h, (2-Phenyl-thiazol-4-yl)-(3,4,5-trimethoxy-phenyl)-methanone], the IC50 came to 55 ± 5 nM with B16-F1; 28 ± 5 nM in the data set with A375 (A-375, 96 h, SRB assay, 96 h, Tables 1, 2, 3, 5B, 5C, read-out: IC50 ± SEM (nM), A375); 64 ± 4 nM in the data set with WM-164 (WM164, 96 h, SRB assay, 96 h, Table 2, read-out: IC50 ± SEM (nM), WM-164); 21 ± 1 nM with PC-3 (setting [11]); 35 ± 2 nM with OVCAR-8 (OVCAR-8, Table 5A, read-out: IC50 (nM), OVCAR-8); 29.1 ± 1.1 nM with PC-3 cells (PC-3, PC-3 cells from ATCC). Further, the IC50 with PC-3 cells (PC-3, dissociated cells from 1h treated tumors (15 mg/kg, 21 days)) is 30.4 ± 0.5 nM; in the data set with PC-3 cells (PC-3, dissociated cells from vehicle treated tumors), 29.1 ± 0.8 nM; in the data set on DU 145 (read-out: IC50 ± SEM (nM), DU 145), 71 ± 4 nM; in the data set with LNCaP, 28 ± 4 nM; with PPC-1 it was 43 ± 5 nM. The same molecule registered an inhibited tubulin polymerization in the data set with Bovine brain tubulin (15 min, Figure 28B) of 90%. Further, the tubulin polymerization inhibited with Bovine brain tubulin (20 min incubation, compared to vehicle) is 47%. Further, the “competition for tubulin binding sites” value in data set [1] is listed as “specifically competed with colchicine binding to tubulin”. In addition, the “% T/C” value in [2] (A375, 1h 20 mg/kg) came out at 28%. The same molecule yielded a tumor volume in [2] (A375, nude mice, 1h 20 mg/kg, 34 days, control 2183 mm^3) of 775 mm^3. The “Tumor volume by day 21” value in data set [3] (PC-3, 5 mg/kg i.p.) was determined as 370 mm^3; in [3] (PC-3, 15 mg/kg i.p.), 176 mm^3. For the same molecule, the RatPK_IV5mgk_Cl (rat, IV, 2.5mpk) was 7.7 (2.5mpk) mL/min/kg. Further, under setting [12], the “CL (mL/min/kg), systemic clearance” value was found to be 7.7 ± 1.0 mL/min/kg. In addition, the “Vss (L/kg), volume of distribution” value under setting [12] turned out to be 4.9 ± 1.9 L/kg. The molecule also showed a volume of distribution (rats, […] iv) of 7.6 L/kg. Where the note is “rats, […] iv, Table 22”, the clearance is 6 mL/min/kg. Moreover, in “in vivo [4]”, the MTD at 96 h was at least 30 mg/kg. In addition, the “time on the rotating rod versus vehicle group” value in data set [5] was “no significant difference”.

As to `COc1cc(C(=O)c2c[nH]c(-c3ccc(Cl)cc3)n2)cc(OC)c1OC` [12fa, (2-(4-Chlorophenyl)-1H-imidazol-4-yl)(3,4,5-trimethoxyphenyl)methanone], the IC50 in the data set on PC-3 (setting [11]) came out at 35 ± 1 nM; with OVCAR-8 (OVCAR-8 cells, read-out: IC50 ± SEM (nM) OVCAR-8), 47 nM; in the data set on DU 145 (read-out: IC50 ± SEM (nM) Du 145), 36 ± 0.4 nM; in the data set on LNCaP, 24 ± 1 nM; in the data set with PPC-1 it was 26 ± 0.2 nM. For the same molecule, in [6], the Solubility was 12 µg/mL (≈ 32.2 µM). Further, the AUC is 3630 ng·h/mL in “in vivo [7]” and 3350 ng·h/mL in “in vivo [8]”. Also, the Cmax is 1110 ng/mL in “in vivo [7]” and 2590 ng/mL in the data set “in vivo [8]”.

Regarding `COc1ccc(S(=O)(=O)Nc2cccnc2Nc2ccc(O)cc2)cc1` [ABT-751], the IC50 in the data set on A375 (A-375, Table 14B, n=3, read-out: IC50 ± SEM (nmol/L) A375) is 685 ± 108 nM; in the data set on WM-164 (WM164, read-out: IC50 ± SEM (nM) (n=3), WM-164, Table 14A) it was 661 ± 56 nM; with WM-164 (WM164, Table 14B, n=3, read-out: IC50 ± SEM (nmol/L) WM-164), 661 ± 56 nM; in the data set with OVCAR-8 (OVCAR-8, parental cell line, n=3, read-out: IC50 ± SEM (nmol/L) OVCAR-8), 785 ± 17 nM; in the data set with NCI/ADR-RES, 864 ± 42 nmol/L; in the data set with MDA-MB-435 it was 417 ± 23 nmol/L. Moreover, the IC50 in the data set with MDA-MB-435/LCC6MDR1 stood at 577 ± 31 nmol/L; in the data set on MRP (MRP1 overexpressed, read-out: IC50 ± SEM (nmol/L) HEK293-MRP1), 717 ± 28 nmol/L; in the data set with MRP (MRP2 overexpressed, read-out: IC50 ± SEM (nmol/L) HEK293-MRP2), 747 ± 7 nmol/L; in data set [9] (A375MA2 cells, read-out: IC50 ± SEM (nmol/L) A375MA2), 265 ± 36 nmol/L; in data set [9] (Homo sapiens, HEK293-pcDNA3.1 parental cell line, read-out: IC50 ± SEM (nmol/L) HEK293 - pcDNA3.1) it was 645 ± 153 nmol/L. For the same molecule, in the data set on WM-164 melanoma cells, the “effect on microtubules” value is on record as “microtubule fragmentation”.

With `COc1cccc2c1C(=O)c1c(O)c3c(c(O)c1C2=O)C[C@@](O)(C(=O)CO)C[C@@H]3O[C@H]1C[C@H](N)[C@H](O)[C@H](C)O1` [Doxorubicin], the results for the IC50 (in the data set with PC-3 (read-out: IC50 PC3); in data set [10] (read-out: IC50 HUVEC); in the data set on T47D) were 397 nM, 274 nM and 353 nM, respectively. Moreover, the “times more active against endothelial cells than against cancer cells” value in [10] (Table 24) is on record as “not specific to endothelial cells”. The “Selectivity ratio*, cancer cells/ HUVEC” value in data set [10] (mean IC50 in PC3 and T47D cells over HUVEC) was 1.4. For the same molecule, the “permeability of endothelial cell monolayer” value in the data set on HUVEC monolayers was “did not induce any change”.

As for `CC(C)NCC(O)COc1cccc2ccccc12` (stereo not drawn) [Propranolol], the “Papp(A→B) in CaCO-2 assay” value with CaCO-2 is “Propranolol (19) 10^-6 cm/s”.
